For data set [1], the system named is Cryptococcus neoformans. As to the kind of experiment: Antifungal activity against Cryptococcus neoformans ATCC 52657-infected mouse assessed as reduction of CFU per gram of brain at 10 mg/kg, ip qd for 5 days relative to control. Further details: scale not given: the % may be the effect or the level left. It counts as functional. As to conditions: route intraperitoneal.

Data set [2] deals with Cryptococcus neoformans. Kind of data set: Antifungal activity against Cryptococcus neoformans ATCC 52657-infected mouse assessed as reduction of CFU per gram of brain at 5 mg/kg, ip qd for 5 days relative to control. As to conditions: route intraperitoneal. Details: scale not given: the % may be the effect or the level left. It is filed as functional.
Data set [3] has as its system Cryptococcus neoformans. Kind of data set: Antifungal activity against Cryptococcus neoformans ATCC 52657-infected mouse assessed as reduction of CFU per gram of brain at 1 mg/kg, ip qd for 5 days relative to control. It is filed as functional. As to conditions: route intraperitoneal. Details: scale not given: the % may be the effect or the level left.
For data set [4], the system named is Cryptococcus neoformans. As to the kind of experiment: Antifungal activity against Cryptococcus neoformans ATCC 52657-infected mouse assessed as reduction of CFU per gram of brain at 1.2 mg/kg, ip qd for 5 days relative to control. It is filed as functional. Details: scale not given: the % may be the effect or the level left. As to conditions: route intraperitoneal.

Data set [5] concerns Candida albicans. Kind of data set: Antifungal activity against Candida albicans B311 ATCC 32354-infected mouse assessed as reduction of CFU per gram of kidney at 10 mg/kg, ip qd for 3 days relative to control. As to conditions: route intraperitoneal. It counts as functional. Details: scale not given: the % may be the effect or the level left.
The subject of data set [6] is Candida albicans. As to the kind of experiment: Antifungal activity against Candida albicans B311 ATCC 32354-infected mouse assessed as reduction of CFU per gram of kidney at 5 mg/kg, ip qd for 3 days relative to control. It counts as functional. Details: scale not given: the % may be the effect or the level left. As to conditions: route intraperitoneal.
Data set [7] deals with Candida albicans. As to the kind of experiment: Antifungal activity against Candida albicans B311 ATCC 32354-infected mouse assessed as reduction of CFU per gram of kidney at 1 mg/kg, ip qd for 3 days relative to control. It is filed as functional. Further details: scale not given: the % may be the effect or the level left. As to conditions: route intraperitoneal.
Data set [8] relates to Candida albicans. Kind of data set: Antifungal activity against Candida albicans B311 ATCC 32354-infected mouse assessed as reduction of CFU per gram of kidney at 1.2 mg/kg, ip qd for 3 days relative to control. It counts as functional. Further details: scale not given: the % may be the effect or the level left. As to conditions: route intraperitoneal.
Data set [9] has as its system Mus musculus. As to the kind of experiment: Toxicity in Candida albicans B311 ATCC 32354-infected mouse assessed as change in body weight at 1 to 10 mg/kg, ip qd for 3 days. It is filed as organism-based. Details: dose 1-10 mg/kg, route intraperitoneal. As to conditions: in vivo, 72 h.
The test system of data set [10] is Mus musculus. Kind of data set: Toxicity in Candida albicans B311 ATCC 32354-infected mouse assessed as gross pathological lesions at 1 to 10 mg/kg, ip qd for 3 days. As to conditions: in vivo, 72 h. Further details: dose 1-10 mg/kg, route intraperitoneal. It is filed as organism-based.
The nature of data set [11]: Toxicity in Candida albicans B311 ATCC 32354-infected mouse assessed as white deposits of unknown origin in peritoneal cavity at 20 mg/kg, ip qd for 3 days. As to conditions: in vivo, 72 h. Further details: dose 20 mg/kg, route intraperitoneal. It counts as organism-based.
A short description of data set [12]: Toxicity in Candida albicans B311 ATCC 32354-infected ip dosed mouse administered qd for 3 days. It is filed as organism-based. As to conditions: in vivo.
The subject of data set [13] is Cryptococcus neoformans. As to the kind of experiment: Antifungal activity against Cryptococcus neoformans ATCC 90113 by CLSI method. It is filed as functional, organism-based.
The test system of data set [14] is Candida albicans. Kind of data set: Antifungal activity against Candida albicans ATCC 90028 by CLSI method. As to conditions: Candida albicans, ATCC 90028. It counts as functional, organism-based.
For a further data set, the system named is Aspergillus fumigatus. Kind of data set: Antifungal activity against Aspergillus fumigatus ATCC 90906 by CLSI method. It counts as functional, organism-based.
Another data set deals with Vero. Kind of data set: Cytotoxicity against african green monkey Vero cells after 48 hrs by neutral red assay. It is filed as cell-based. As to conditions: Chlorocebus sabaeus.
The test system of data set [15] is Mus musculus. As to the kind of experiment: Toxicity in Cryptococcus neoformans ATCC 52657 infected mouse assessed as signs of discomfort at 10 to 20 mg/kg, ip qd for 5 days after 2 hrs last post dose. Further details: dose 10-20 mg/kg, route intraperitoneal. As to conditions: in vivo. It is filed as organism-based.
Data set [16] relates to Mus musculus. Kind of data set: Toxicity in Cryptococcus neoformans ATCC 52657 infected mouse assessed as change in body weight at 10 mg/kg, ip qd for 5 days. It is filed as organism-based. Further details: dose 10 mg/kg, route intraperitoneal. As to conditions: in vivo, 120 h.
The subject of data set [17] is Mus musculus. As to the kind of experiment: Toxicity in Cryptococcus neoformans ATCC 52657 infected mouse assessed as change in body weight at 20 mg/kg, ip qd for 5 days. Details: dose 20 mg/kg, route intraperitoneal. As to conditions: in vivo, 120 h. It is filed as organism-based.
In data set [18] the test system is Mus musculus. Kind of data set: Toxicity in Cryptococcus neoformans ATCC 52657 infected mouse assessed as pathological lesions at 10 mg/kg, ip qd for 5 days. It counts as organism-based. Details: dose 10 mg/kg, route intraperitoneal. As to conditions: in vivo, 120 h.
Data set [19] relates to Mus musculus. Kind of data set: Toxicity in Cryptococcus neoformans ATCC 52657 infected mouse assessed as distension of duodenum at 10 mg/kg, ip qd for 5 days. It is filed as organism-based. Details: dose 10 mg/kg. As to conditions: in vivo, other, 120 h.
Data set [20] relates to Mus musculus. As to the kind of experiment: Toxicity in Cryptococcus neoformans ATCC 52657 infected mouse assessed as distension of jejunum at 10 mg/kg, ip qd for 5 days. It is filed as organism-based. As to conditions: in vivo, 120 h. Further details: dose 10 mg/kg, route intraperitoneal.
Data set [21] relates to Mus musculus. Kind of data set: Toxicity in Cryptococcus neoformans ATCC 52657 infected mouse assessed as distension of cecum at 10 mg/kg, ip qd for 5 days. It is filed as organism-based, Caecum. Further details: dose 10 mg/kg, route intraperitoneal. As to conditions: in vivo, 120 h.
Data set [22] has as its system Mus musculus. As to the kind of experiment: Toxicity in Cryptococcus neoformans ATCC 52657 infected mouse assessed as enlargement of liver with fusion of hepatic lobes at 20 mg/kg, ip qd for 5 days. It counts as organism-based. Details: dose 20 mg/kg, route intraperitoneal. As to conditions: in vivo, 120 h.
Data set [23] deals with Mus musculus. As to the kind of experiment: Toxicity in Cryptococcus neoformans ATCC 52657 infected mouse assessed as distension of duodenum at 20 mg/kg, ip qd for 5 days. It counts as organism-based. Further details: dose 20 mg/kg. As to conditions: in vivo, other, 120 h.
The test system of data set [24] is Mus musculus. Kind of data set: Toxicity in Cryptococcus neoformans ATCC 52657 infected mouse assessed as distension of jejunum at 20 mg/kg, ip qd for 5 days. It counts as organism-based. Further details: dose 20 mg/kg, route intraperitoneal. As to conditions: in vivo, 120 h.
Data set [25] concerns Mus musculus. Kind of data set: Toxicity in Cryptococcus neoformans ATCC 52657 infected mouse assessed as distension of cecum at 20 mg/kg, ip qd for 5 days. It counts as organism-based, Caecum. Details: dose 20 mg/kg, route intraperitoneal. As to conditions: in vivo, 120 h.
Data set [26] deals with Mus musculus. As to the kind of experiment: Toxicity in Cryptococcus neoformans ATCC 52657 infected mouse assessed as change in gross pathology of kidney at 10 to 20 mg/kg, ip qd for 5 days. It counts as organism-based. Details: dose 10-20 mg/kg, route intraperitoneal. As to conditions: in vivo, 120 h.
Data set [27] concerns Mus musculus. As to the kind of experiment: Toxicity in Cryptococcus neoformans ATCC 52657 infected mouse assessed as change in gross pathology of spleen at 10 to 20 mg/kg, ip qd for 5 days. It counts as organism-based. Further details: dose 10-20 mg/kg, route intraperitoneal. As to conditions: in vivo, 120 h.
Data set [28] relates to Candida albicans. As to the kind of experiment: Antifungal activity against Candida albicans ATCC 90028 at 20 ug/ml by CLSI method. It is filed as functional, organism-based.
Data set [29] concerns Mus musculus. Kind of data set: Toxicity in Cryptococcus neoformans ATCC 52657 infected mouse assessed as decrease in mobility at 10 to 20 mg/kg, ip qd for 5 days. It counts as organism-based. Details: dose 10-20 mg/kg, route intraperitoneal. As to conditions: in vivo, 120 h.
For data set [30], the system named is Mus musculus. As to the kind of experiment: Toxicity in Cryptococcus neoformans ATCC 52657 infected mouse assessed as signs of discomfort at 10 to 20 mg/kg, ip qd for 5 days. It is filed as organism-based. Further details: dose 10-20 mg/kg, route intraperitoneal. As to conditions: in vivo, 120 h.
The test system of data set [31] is Mus musculus. Kind of data set: Toxicity in Cryptococcus neoformans ATCC 52657 infected mouse assessed as decrease in mobility at 10 to 20 mg/kg, ip qd for 5 days after 2 hrs last post dose. It is filed as organism-based. Details: dose 10-20 mg/kg, route intraperitoneal. As to conditions: in vivo.

The source made the active and inactive calls. No cut-off for these calls is given here. Some results are limits rather than exact numbers.

Take `COc1ccc2cc3sc4ccccc4c3[n+](C)c2c1.O=S(=O)([O-])C(F)(F)F`: the Activity with Cryptococcus neoformans [1] is reported as 10%; in the data set on Cryptococcus neoformans [2], 26%; with Cryptococcus neoformans [3], 50%; in the data set with Cryptococcus neoformans [4] it was 24%; in the data set on Candida albicans [5], 86%; with Candida albicans [6], 26%. Further, the Activity with Candida albicans [7] is given as 34%; in the data set with Candida albicans [8] it was 99%; in the data set with Mus musculus [9], “Non-toxic”; with Mus musculus [10] it was “Non-toxic”; in [11] it was “Toxic”. The MTD at 72 h in data set [12] came out at 10 mg/kg. Further, the half-maximal inhibitory concentration (IC50) (in general, the midpoint of a concentration-inhibition curve) in the data set on Cryptococcus neoformans [13] is 6 µg/mL; with Candida albicans [14], 1.5 µg/mL; with Aspergillus fumigatus, 0.4 µg/mL; with Vero, over 10 µg/mL. In addition, the minimum inhibitory concentration (MIC) (usually the lowest concentration that inhibits growth of the organism) against Cryptococcus neoformans [13] was over 20 µg/mL; in the data set with Candida albicans [14], 10 µg/mL; in the data set on Aspergillus fumigatus it was 0.6 µg/mL.

In the case of `C[n+]1c2c(Cl)cccc2cc2sc3ccccc3c21.O=S(=O)([O-])C(F)(F)F`, the Activity result is given as “Non-toxic” in the data set with Mus musculus [15]; “Non-toxic” with Mus musculus [16]; “Toxic” with Mus musculus [17]; “Non-toxic” in the data set on Mus musculus [18]; “Toxic” in the data set with Mus musculus [19]; “Toxic” with Mus musculus [20]. Besides, the Activity entry was “Toxic” in the data set on Mus musculus [21]; “Toxic” in the data set with Mus musculus [22]; “Toxic” with Mus musculus [23]; “Toxic” in the data set on Mus musculus [24]; “Toxic” with Mus musculus [25]; “Non-toxic” in the data set with Mus musculus [26]. Also, the Activity entry with Mus musculus [27] was “Non-toxic”; in the data set with Mus musculus [29], “Toxic”; with Mus musculus [30], “Toxic”; in the data set with Mus musculus [31], “Non-toxic”. Besides, the result with Candida albicans [28] was inactive. The figures for the half-inhibitory concentration (IC50) in the data set on Cryptococcus neoformans [13], with Aspergillus fumigatus and in the data set on Vero were 4 µg/mL, 6 µg/mL and over 10 µg/mL, respectively. In addition, the minimal inhibitory concentration (MIC) against Cryptococcus neoformans [13] and in the data set on Aspergillus fumigatus was 10 µg/mL in each case.

(Values after ChEMBL document CHEMBL1641593, “Benzothieno[3,2-b]quinolinium and 3-(phenylthio)quinolinium compounds: Synthesis and evaluation against opportunistic fungal pathogens” (Bioorg Med Chem, 2011).)
